This note sets out measurements from patent publication US20240043427A1 (Gilead Sciences, Inc., priority 2020, published 2024).

What is called IC50 is the concentration that inhibits the measured activity by half. Read a high IC50 as weaker potency.

SMILES strings stand for the structures.

For this test, the target named is CD73 (Homo sapiens (Human), UniProt P21589). It counts as biochemical. The settings on record: 1 mM NaH2PO4 in enzyme buffer, CD73 0.3 nM, AMP 15 uM.
Sequence of CD73 (P21589 27-574): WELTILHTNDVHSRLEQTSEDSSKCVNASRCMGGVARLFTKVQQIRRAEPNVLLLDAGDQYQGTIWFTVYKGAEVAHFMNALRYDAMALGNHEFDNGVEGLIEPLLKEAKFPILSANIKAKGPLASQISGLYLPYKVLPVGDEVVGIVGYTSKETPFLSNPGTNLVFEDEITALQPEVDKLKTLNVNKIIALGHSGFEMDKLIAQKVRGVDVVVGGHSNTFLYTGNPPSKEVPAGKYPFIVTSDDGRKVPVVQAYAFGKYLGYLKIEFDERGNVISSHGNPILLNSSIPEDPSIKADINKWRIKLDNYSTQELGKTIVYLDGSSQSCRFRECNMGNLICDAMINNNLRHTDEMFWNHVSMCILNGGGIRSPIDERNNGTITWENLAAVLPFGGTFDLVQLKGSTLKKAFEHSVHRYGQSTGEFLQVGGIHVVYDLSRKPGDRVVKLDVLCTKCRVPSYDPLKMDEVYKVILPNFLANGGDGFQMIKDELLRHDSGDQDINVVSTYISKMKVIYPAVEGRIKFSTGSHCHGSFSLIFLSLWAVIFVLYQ
The molecule `O=c1[nH]cc(-c2cc([C@H]3C[C@@H]3c3ccc4c(F)nn(CC(F)(F)F)c4c3)c3nccn3n2)c(=O)[nH]1` (racemic) [Example 117, 5-(8-((1S,2S)-2-(3-fluoro-1-(2,2,2-trifluoroethyl)-1H-indazol-6-yl)cyclopropyl)imidazo[1,2-b]pyridazin-6-yl)pyrimidine-2,4(1H,3H)-dione] registered a half-inhibitory concentration (IC50) of 0.89 nM.

`O=c1[nH]cc(-c2cc([C@H]3C[C@@H]3c3ccc4cnn(CC5CC5(F)F)c4c3)c3nccn3n2)c(=O)[nH]1` (mixture of isomers) [Example 118, 5-(8-((1S,2S)-2-(1-((2,2-difluorocyclopropyl)methyl)-1H-indazol-6-yl)cyclopropyl)imidazo[1,2-b]pyridazin-6-yl)pyrimidine-2,4(1H,3H)-dione] registered an IC50 of 0.79 nM.

As to `O=c1[nH]cc(-c2cc([C@H]3C[C@@H]3c3cc4c(ccn4CC(F)(F)F)cn3)c3nccn3n2)c(=O)[nH]1` (racemic) [Example 127, 5-(8-((1S,2S)-2-(1-(2,2,2-trifluoroethyl)-1H-pyrrolo[3,2-c]pyridin-6-yl)cyclopropyl)imidazo[1,2-b]pyridazin-6-yl)pyrimidine-2,4(1H,3H)-dione], the IC50 was 1.13 nM.

For `O=c1[nH]cc(-c2cc([C@H]3C[C@@H]3c3ccc4c(C5CC5)nn(CC(F)(F)F)c4c3)c3nccn3n2)c(=O)[nH]1` (racemic) [Example 128, 5-(8-((1S,2S)-2-(3-cyclopropyl-1-(2,2,2-trifluoroethyl)-1H-indazol-6-yl)cyclopropyl)imidazo[1,2-b]pyridazin-6-yl)pyrimidine-2,4(1H,3H)-dione], inhibition was half-maximal at 1.84 nM (IC50).

In turn, `O=c1[nH]cc(-c2cc([C@H]3C[C@@H]3c3ccc4cnn(CC5CC5)c4c3)c3nccn3n2)c(=O)[nH]1` (racemic) [Example 130, 5-(8-((1S,2S)-2-(1-(cyclopropylmethyl)-1H-indazol-6-yl)cyclopropyl)imidazo[1,2-b]pyridazin-6-yl)pyrimidine-2,4(1H,3H)-dione] showed an IC50 of 1.01 nM.

On to `O=c1[nH]cc(-c2cc([C@H]3C[C@@H]3c3ccc4ncsc4c3)c3nc(C4CC4)cn3n2)c(=O)[nH]1` (racemic) [Example 143, 5-(8-((1S,2S)-2-(benzo[d]thiazol-6-yl)cyclopropyl)-2-cyclopropylimidazo[1,2-b]pyridazin-6-yl)pyrimidine-2,4(1H,3H)-dione], for which the IC50 amounted to 5.69 nM.

The molecule `N#Cc1ccc([C@H]2C[C@@H]2c2cc(-c3c[nH]c(=O)[nH]c3=O)nn3c(F)cnc23)nc1` (racemic) [Example 151, 6-((1S,2S)-2-(6-(2,4-dioxo-1,2,3,4-tetrahydropyrimidin-5-yl)-3-fluoroimidazo[1,2-b]pyridazin-8-yl)cyclopropyl)nicotinonitrile] had a half-inhibitory concentration (IC50) of 1.36 nM.

Take `O=c1[nH]cc(-c2cc([C@H]3C[C@@H]3c3ccc4cccnc4c3)c3nccn3n2)c(=O)[nH]1` (racemic) [Example 154, 5-(8-((1S,2S)-2-(quinolin-7-yl)cyclopropyl)imidazo[1,2-b]pyridazin-6-yl)pyrimidine-2,4(1H,3H)-dione]: 1.56 nM corresponded to half-maximal inhibition (IC50).

The molecule `N#Cc1ccc([C@H]2C[C@@H]2c2cc(-c3c[nH]c(=O)[nH]c3=O)nn3ccnc23)nc1` (racemic) [Example 155, 6-((1S,2S)-2-(6-(2,4-dioxo-1,2,3,4-tetrahydropyrimidin-5-yl)imidazo[1,2-b]pyridazin-8-yl)cyclopropyl)nicotinonitrile] showed a 50% inhibitory concentration (IC50) of 2.04 nM.

Turning to `O=c1[nH]cc(-c2cc([C@H]3C[C@@H]3c3ccc4cnccc4c3)c3nccn3n2)c(=O)[nH]1` (racemic) [Example 156, 5-(8-((1S,2S)-2-(isoquinolin-6-yl)cyclopropyl)imidazo[1,2-b]pyridazin-6-yl)pyrimidine-2,4(1H,3H)-dione], the midpoint of inhibition, the IC50, lay at 0.95 nM.

`O=c1[nH]cc(-c2cc([C@H]3C[C@@H]3c3ccc4ncccc4c3)c3nccn3n2)c(=O)[nH]1` (racemic) [Example 157, 5-(8-((1S,2S)-2-(quinolin-6-yl)cyclopropyl)imidazo[1,2-b]pyridazin-6-yl)pyrimidine-2,4(1H,3H)-dione] gave an IC50 of 1.06 nM.
